This is an account of results in patent US12264139B2, “Aryl sulfonamides as BLT1 antagonists” (Merck Sharp & Dohme LLC, priority 2015, dated 2025).

The experiment concerns the target T1, human BLT1 receptor (Homo sapiens, UniProt Q15722).
T1 construct: expressed in transfected cells; host or cells: HEK293
Description: BLT-1 cAMP Assay. The experiment is classed as cell-based. The settings on record: HEK293 cells recombinantly expressing human BLT1; antagonist activity vs forskolin 4 μM and LTB4 2 nM; cAMP (CisBio kit).

T1 sequence (Q15722 whole entry): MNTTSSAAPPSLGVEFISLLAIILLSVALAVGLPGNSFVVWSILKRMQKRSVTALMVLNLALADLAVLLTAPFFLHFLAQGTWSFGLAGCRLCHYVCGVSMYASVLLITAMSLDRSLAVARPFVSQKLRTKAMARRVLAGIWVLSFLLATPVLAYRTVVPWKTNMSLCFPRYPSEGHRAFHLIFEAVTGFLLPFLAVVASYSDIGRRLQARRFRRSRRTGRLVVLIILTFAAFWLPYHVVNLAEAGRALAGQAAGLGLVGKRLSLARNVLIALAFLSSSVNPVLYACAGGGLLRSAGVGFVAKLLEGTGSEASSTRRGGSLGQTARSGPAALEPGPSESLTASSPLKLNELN

As for `CCn1ccc(C[C@@H]2COc3cc(-c4ccccc4NS(=O)(=O)C(F)(F)F)ccc3[C@H]2O)n1` (single isomer, unassigned) [Example 47, N-(2-((3R,4S or 3S,4R)-3-((1-ethyl-1H-pyrazol-3-yl)methyl)-4-hydroxychroman-7-yl)phenyl)-1,1,1-trifluoromethanesulfonamide], the EC50 (as a rule, the concentration at which the effect is half-maximal) was found to be 1200 nM.
For `O=S(=O)(CC(F)(F)F)Nc1ccccc1-c1ccc2c(c1)OC[C@@H](Cc1ccccn1)[C@@H]2O` (single isomer, unassigned) [Example 80, 2,2,2-Trifluoro-N-(2-((3S,4R or 3R,4S)-4-hydroxy-3-(pyridin-2-ylmethyl)chroman-7-yl)phenyl)ethanesulfonamide], the EC50 came to 481 nM.
